Test [1] deals with T1, CDK5/GST-p25 (Homo sapiens, UniProt Q00535).
T1 construct: The final construct, encoding for full-length human CDK5; made in house; host or cells: Sf21 insect cells (baculovirus co-infection)
Kind of test: Inhibition of CDK5/GST-p25 kinase activity (ELISA with time-resolved fluorescence readout). Format: biochemical. How it is done:
Two recombinant baculoviral constructs were created, one encoding for human CDK5 and the other encoding for human p25 with an amino-terminal glutathione-S-transferase (GST) tag. PCR amplification of full-length CDK5 was performed utilizing human brain cDNA as a template and Pfu Turbo polymerase (Strategene). The PCR product from this reaction was subcloned into the baculoviral expression vector pFASTBAC1 (Gibco/BRL). The final construct, encoding for full-length human CDK5 (base pairs 25-903 of GenBank Accession #NM_004935), is 292 amino acids long with a predicted MW of 33.3 kDa.
For p25, the active truncated form of p35, amino acids 108-307 were PCR-amplified from human fetal brain cDNA (Clontech QUICK-Clone cDNA) using the Advantage 2 PCR system (Clontech). The PCR product was subcloned into the baculoviral transfer vector pFBGSTP (an engineered derivative of the baculoviral transfer vector pFASTBAC1). The final baculoviral construct encodes for base pairs 419-1021 of GenBank Accession #NM_003885, with an amino-terminal GST tag. The expressed GST-p25 is 444 amino acids long with a predicted MW of 50.3 kDa.
The CDK5/GST-p25 complex was generated by coexpression. Sf21 cells were cultured in TNM-FHS media at a density of 1.5×10^6 cells/mL and infected with each recombinant virus at MOI values of 5 (for CDK5) and 10 (for GST-p25). The cells were harvested 40 h after infection. For purification, the 100,000×g supernatant solution was used. Expression was confirmed by running samples on SDS-PAGE, followed by immunoblot analysis utilizing antibodies against CDK5 (anti-CDK5 (268-283); Calbiochem #219449) and p35 (Santa Cruz #sc820). The CDK5/GST-p25 complex was purified by glutathione affinity chromatography.
Compounds were tested for their ability to inhibit the kinase activity of recombinant baculoviral CDK5/GST-p25 using an enzyme-linked immunosorbent assay (ELISA) with time-resolved fluorescence (TRF) readout. Briefly, each 384-well FluoroNunc Maxisorp plate (Cat # 460372) plate was coated with 50 μl/well of 50 μg/ml substrate solution (recombinant GST-Rb(773-928)) in Tris-buffered saline (TBS). The CDK5/GST-p25 assay mixture (total volume=50 μl/well) consisting of 20 mM HEPES (pH 7.2), 10 μM ATP, 10 mM MgCl2, 5 mM EGTA, 25 mM β-glycerophosphate, 0.05% BSA, 2.5% DMSO, and various concentrations of test compound were then added to the assay plate. Enzyme (2 ng/ml CDK5/GST-p25) was added and the reaction was allowed to proceed at 37° C. for 20 minutes. Detection of the phosphorylated product was performed by adding 50 μl/well of phospho-Rb (Ser-780) antibody (Cell Signaling # 9307) diluted 1:10,000 in antibody dilution buffer (0.1% BSA in TBST). After 1-hour incubation at 37° C., 50 μl/well of Eu-Nl labelled anti-rabbit antibody (Wallac # AD0105; 1:50,000 in antibody dilution buffer) was added. Incubation at 37° C. then proceeded for 1 hour, followed by addition of 50 μl enhancement solution (Wallac #1244-105). The plate was gently agitated and after a few minutes, the fluorescence of the resulting solution was measured using a Multilabel Reader (Victor2 Model # 1420-018 or Envision Model # 2100). Inhibition data were analyzed using ActivityBase and IC50 curves were generated using XLFit 3.0.5.
(In general: In an ELISA, binding on a coated surface is turned into a signal by an enzyme label.)

Test [2] addresses T2, His6-GSK-3β (Homo sapiens, UniProt P49841).
T2 construct: made in house; host or cells: Sf21 insect cells (baculovirus)
Kind of test: Inhibition of His6-GSK-3β kinase activity (ELISA-based format, time-resolved fluorescence readout). It counts as biochemical. The settings on record: class symbols; read-out: GSK3β IC50. From the text:
Full-length GSK-3β was amplified from a sequence-verified I.M.A.G.E. EST acquired from Research Genetics (Invitrogen, Clone ID# CSODB003YJ02). The final sequence-verified cDNA contained the coding region for a NH2-terminal tag, which encoded for 6 histidines and then eight vector-encoded amino acids prior to the start of GSK3β, which contained by # 43-1342 of Genbank Accession # NM_002093, encoding amino acids #2-419. The predicted molecular weight of the tagged, 435 amino acid, full-length protein is 48.5 kDa. The major structural element of this protein is the kinase domain, which is from amino acids #56-340. Recombinant baculoviral DNA was prepared by transposition in E. coli (BAC-TO-BAC system: Invitrogen) and the virus generated and amplified in Sf21 insect cells. A suspension culture of Sf21 cells was infected at an MOI of 0.7 and cell density of 1.5×10^6 cells/mL in Excell 420 serum-free media (JRH BioScience) and harvested 65 h after infection. The 100,000×g supernatant solution was used for purification. Expression was confirmed by running samples on SDS-PAGE, followed by immunoblot analysis utilizing both a Penta-HIS antibody (Qiagen #34660) and a GSK-3α/GSK-3β antibody (Calbiochem #368662, data not shown). The His6-tagged protein was purified to in one step by Ni-NTA affinity chromatography.
Inhibitory effects of compounds on baculoviral GSK-3β kinase activity were evaluated using an ELISA-based format in a 384-well FluoroNunc Maxisorp plate (Cat # 460372) with a time-resolved fluorescence readout. Briefly, each plate was coated with 50 μl/well of 20 μg/ml substrate solution (recombinant GST-Rb) in Tris-buffered saline (TBS). The GSK-3β assay mixture (total volume=50 μl/well) consisting of 50 mM HEPES (pH 7.2), 20 μM ATP, 10 mM MgCl2, 5 mM EGTA, 25 mM β-glycerophosphate, 0.05% BSA, 2.5% DMSO, and various concentrations of test compound were then added to the assay plate. Enzyme (200 ng/ml His6-GSK-3β) was then added and the reaction was allowed to proceed at 37° C. for 30 minutes. Detection of the phosphorylated product was performed by adding 50 μl/well of phospho-Rb (Ser-780) antibody (Cell Signaling # 9307) diluted 1:10,000 in antibody dilution buffer (0.1% BSA in TBST). After 1-hour incubation at 37° C., 50 μl/well of Eu-N1 labelled anti-rabbit antibody (Wallac # AD0105; 1:50,000 in antibody dilution buffer) was added. Incubation at 37° C. then proceeded for 1 hour, followed by addition of 50 μl enhancement solution (Wallac #1244-105). The plate was gently agitated and after a few minutes, the fluorescence of the resulting solution was measured using a Multilabel Reader (Victor2 Model # 1420-018 or Envision Model 2100). Inhibition data were analyzed using ActivityBase and IC50 curves were generated using XLFit 3.0.5.

T1 sequence (Q00535 whole entry): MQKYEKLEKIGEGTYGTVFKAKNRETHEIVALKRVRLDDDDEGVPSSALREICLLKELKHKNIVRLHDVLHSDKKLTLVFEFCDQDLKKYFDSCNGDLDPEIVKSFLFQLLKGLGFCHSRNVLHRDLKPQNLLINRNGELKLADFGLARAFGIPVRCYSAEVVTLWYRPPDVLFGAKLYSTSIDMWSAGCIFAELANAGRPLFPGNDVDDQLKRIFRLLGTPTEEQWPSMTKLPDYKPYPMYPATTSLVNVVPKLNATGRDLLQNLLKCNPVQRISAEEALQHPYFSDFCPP
T1 sequence (Q15078 108-307 partner limits assumed): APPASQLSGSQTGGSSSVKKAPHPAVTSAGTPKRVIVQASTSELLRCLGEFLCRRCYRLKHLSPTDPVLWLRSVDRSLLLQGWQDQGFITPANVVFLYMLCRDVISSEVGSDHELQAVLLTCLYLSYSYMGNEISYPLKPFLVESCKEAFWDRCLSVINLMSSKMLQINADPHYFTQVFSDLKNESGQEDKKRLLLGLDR
T2 sequence (P49841 2-419): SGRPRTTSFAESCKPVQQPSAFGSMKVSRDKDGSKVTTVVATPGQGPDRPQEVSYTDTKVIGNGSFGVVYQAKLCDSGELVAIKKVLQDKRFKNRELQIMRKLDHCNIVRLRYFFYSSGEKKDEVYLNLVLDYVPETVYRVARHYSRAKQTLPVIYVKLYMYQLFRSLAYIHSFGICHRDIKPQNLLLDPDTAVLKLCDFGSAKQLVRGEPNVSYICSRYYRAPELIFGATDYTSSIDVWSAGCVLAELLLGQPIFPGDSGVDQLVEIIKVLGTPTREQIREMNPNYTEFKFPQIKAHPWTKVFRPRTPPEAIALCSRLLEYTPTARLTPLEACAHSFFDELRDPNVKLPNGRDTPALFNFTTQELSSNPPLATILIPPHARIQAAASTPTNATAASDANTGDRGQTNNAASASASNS

Take `CN(C)CCN1CCN(c2nc(C3C(=O)Nc4ccc(Cl)cc43)c3cn(C4CCCC4)nc3n2)CC1` (stereo not shown) [Example 144, 5-Chloro-3-{2-cyclopentyl-6-[4-(2-dimethylamino-ethyl)-piperazin-1-yl]-2H-pyrazolo[3,4-d]pyrimidin-4-yl}-1,3-dihydro-indol-2-one]: the IC50 was over 10 µM in test [1] (class symbols) and under 0.3 µM in test [2].
Consider `O=C1Nc2ccc(Br)cc2C1c1nc(NCc2ccc(Cl)nc2)nc2c1CCC2` (stereo not shown) [Example 338, 5-Bromo-3-{2-[(6-chloro-pyridin-3-ylmethyl)-amino]-6,7-dihydro-5H-cyclopentapyrimidin-4-yl}-1,3-dihydro-indol-2-one], for which the results for the IC50 in test [1] (numeric bounds) and in test [2] were over 3 µM and over 10 µM, respectively.
In the case of `N#Cc1ccc2c(c1)C(c1nc(NCCc3ccccn3)nc3nn(C4CCCC4)cc13)C(=O)N2` (stereo not shown) [Example 125, 3-[2-cyclopentyl-6-(2-pyridin-2-yl-ethylamino)-2H-pyrazolo [3,4-d]pyrimidin-4-yl]-2-oxo-2,3-dihydro-1H-indole-5-carbonitrile], the IC50 was over 10 µM in test [1] (class symbols) and under 0.3 µM in test [2].
For `O=C1Nc2ccc(Br)cc2C1c1nc(Cl)nc2c1CCC2` (stereo not shown) [Example 314, 5-Bromo-3-(2-chloro-6,7-dihydro-5H-cyclopentapyrimidin-4-yl)-1,3-dihydro-indol-2-one] the same measures were over 10 µM and over 10 µM.
With `COCCn1cc2c(C3C(=O)Nc4ccc(Br)cc43)nc(NCCC3CCNCC3)nc2n1` (stereo not shown) [Example 227, 5-Bromo-3-[2-(2-methoxy-ethyl)-6-(2-piperidin-4-yl-ethylamino)-2H-pyrazolo[3,4-d]pyrimidin-4-yl]-1,3-dihydro-indol-2-one], the IC50 in test [1] (class symbols) and in test [2] was under 0.3 µM in each case.
Take `CCOCCNc1nc2c(c(C3C(=O)Nc4ccc(Br)cc43)n1)CCC2` (stereo not shown) [Example 334, 5-Bromo-3-[2-(2-ethoxy-ethylamino)-6,7-dihydro-5H-cyclopentapyrimidin-4-yl]-1,3-dihydro-indol-2-one]: the IC50 in test [1] (class symbols) and in test [2] was over 10 µM throughout.
Turning to `CN1CCN(c2ccc(Nc3nc(C4C(=O)Nc5ccc(C#N)cc54)c4cn(C5CCCC5)nc4n3)cn2)CC1` (stereo not shown) [Example 137, 3-{2-cyclopentyl-6-[6-(4-methyl-piperazin-1-yl)-pyridin-3-yl-amino]-2H-pyrazolo [3,4-d]pyrimidin-4-yl}-2-oxo-2,3-dihydro-1H-indole-5-carbonitrile], the IC50 is over 10 µM in test [1] (class symbols) and under 0.3 µM in test [2].
Take `N#Cc1ccc2c(c1)C(c1nc(N3CCNCC3)nc3c1CCC3)C(=O)N2` (stereo not shown) [Example 354, 2-Oxo-3-(2-piperazin-1-yl-6,7-dihydro-5H-cyclopentapyrimidin-4-yl)-2,3-dihydro-1H-indole-5-carbonitrile]: the IC50 is under 0.3 µM in test [1] (class symbols) and 0.3 to 3 µM in test [2].
For `N#Cc1ccc2c(c1)C(c1nc(NCc3ccccn3)nc3nn(C4CCCC4)cc13)C(=O)N2` (stereo not shown) [Example 123, 3-{2-cyclopentyl-6-[(pyridin-2-yl-methyl)amino]-2H-pyrazolo[3,4-d]pyrimidin-4-yl}-2-oxo-2,3-dihydro-1H-indole-5-carbonitrile] the same measures were under 0.3 µM and under 0.3 µM.
The matching figures for `O=C1Nc2ccc(Cl)cc2C1c1nc(NCc2ccc(Cl)nc2)nc2c1CCC2` (stereo not shown) [Example 328, 5-Chloro-3-{2-[(6-chloro-pyridin-3-ylmethyl)-amino]-6,7-dihydro-5H-cyclopentapyrimidin-4-yl}-1,3-dihydro-indol-2-one]: over 10 µM and over 10 µM.
The matching figures for `CCCOCCNc1nc2c(c(C3C(=O)Nc4ccc(C#N)cc43)n1)CCC2` (stereo not shown) [Example 343, 2-Oxo-3-[2-(2-propoxy-ethylamino)-6,7-dihydro-5H-cyclopentapyrimidin-4-yl]-2,3-dihydro-1H-indole-5-carbonitrile]: over 10 µM and over 10 µM.
For the molecule `CN(C)CCCNc1nc(C2C(=O)Nc3ccc(C#N)cc32)c2cn(C3CCCC3)nc2n1` (stereo not shown) [Example 138, 3-[2-cyclopentyl-6-(3-dimethylamino-propylamino)-2H-pyrazolo[3,4-d]pyrimidin-4-yl]-2-oxo-2,3-dihydro-1H-indole-5-carbonitrile], the results for the IC50 in test [1] (class symbols) and in test [2] were 0.3 to 3 µM and under 0.3 µM, respectively.
Turning to `N#Cc1ccc2c(c1)C(c1nc(NCCN3CCCC3)nc3nn(C4CCCC4)cc13)C(=O)N2` (stereo not shown) [Example 136, 3-[2-cyclopentyl-6-(2-pyrrolidin-1-yl-ethylamino)-2H-pyrazolo[3,4-d]pyrimidin-4-yl]-2-oxo-2,3-dihydro-1H-indole-5-carbonitrile], the IC50 in test [1] (numeric bounds) is over 3 µM; in test [2] it was under 0.3 µM.
Turning to `CN(C)CCNc1nc2c(c(C3C(=O)Nc4ccc(Cl)cc43)n1)CCC2` (stereo not shown) [Example 323, 5-Chloro-3-[2-(2-dimethylamino-ethylamino)-6,7-dihydro-5H-cyclopentapyrimidin-4-yl]-1,3-dihydro-indol-2-one], the IC50 in test [1] (class symbols) and in test [2] was over 10 µM each time.
Turning to `O=C1Nc2ccc(Br)cc2C1c1nc(NCCN2CCOCC2)nc2c1CCC2` (stereo not shown) [Example 332, 5-Bromo-3-[2-(2-morpholin-4-yl-ethylamino)-6,7-dihydro-5H-cyclopentapyrimidin-4-yl]-1,3-dihydro-indol-2-one], the IC50 in test [1] (numeric bounds) was over 3 µM; in test [2] it was 0.3 to 3 µM.
For the molecule `CCCCNc1nc(C2C(=O)Nc3ccc(C#N)cc32)c2cn(C3CCCC3)nc2n1` (stereo not shown) [Example 116, 3-(6-butylamino-2-cyclopentyl-2H-pyrazolo [3,4-d]pyrimidin-4-yl)-2-oxo-2,3-dihydro-1H-indole-5-carbonitrile], the IC50 in test [2] is under 0.3 µM.

The term IC50 denotes the concentration that inhibits the measured activity by half.

The values are drawn from patent US8354414B2, “Substituted bicyclic pyrimidines” (Cephalon, Inc, priority 2006, dated 2013).
